Results from PubChem BioAssay (NCI).
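Dose response: 5 concentrations. Exposure: 48 h. Format: 96-well plates. Endpoint: linear interpolation; highest concentration if not reached. GI50 = concentration required for 50% inhibition of growth. Definition used: TGI = concentration required for complete inhibition of growth.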

How the values were obtained:
Assay in all cases: inhibition of tumour cell growth, NCI panel, 48 h
MDA-MB-435 = system: MDA-MB-435
OVCAR-4 ovarian = system: OVCAR-4 ovarian
UO-31 renal = system: UO-31 renal
NCI-H460 lung = system: NCI-H460 lung
SF-268 CNS = system: SF-268 CNS
SK-MEL-2 melanoma = system: SK-MEL-2 melanoma
MOLT-4 leukemia = system: MOLT-4 leukemia
786-0 renal = system: 786-0 renal
HOP-62 NSCLC = system: HOP-62 NSCLC
HCT-116 colon = system: HCT-116 colon
LOX IMVI melanoma = system: LOX IMVI melanoma
COLO 205 colon = system: COLO 205 colon
MDA-MB-231 breast = system: MDA-MB-231 breast
SW-620 colon = system: SW-620 colon
MCF7 breast = system: MCF7 breast
KM12 colon = system: KM12 colon
MALME-3M melanoma = system: MALME-3M melanoma
NCI-H23 lung = system: NCI-H23 lung
U251 CNS = system: U251 CNS
SR leukemia = system: SR leukemia
HCT-15 colon = system: HCT-15 colon
SK-MEL-28 melanoma = system: SK-MEL-28 melanoma
TK-10 renal = system: TK-10 renal
PC-3 prostate = system: PC-3 prostate
DU-145 prostate = system: DU-145 prostate
SNB-19 CNS = system: SNB-19 CNS
OVCAR-3 ovarian = system: OVCAR-3 ovarian
SN12C renal = system: SN12C renal
SF-295 CNS = system: SF-295 CNS
NCI-H522 lung = system: NCI-H522 lung
K-562 leukemia = system: K-562 leukemia
RPMI-8226 leukemia = system: RPMI-8226 leukemia
IGROV1 ovarian = system: IGROV1 ovarian
T-47D breast = system: T-47D breast
CAKI-1 renal = system: CAKI-1 renal
A498 renal = system: A498 renal
RXF 393 renal = system: RXF 393 renal
SF-539 CNS = system: SF-539 CNS
UACC-257 melanoma = system: UACC-257 melanoma
OVCAR-5 ovarian = system: OVCAR-5 ovarian
NCI-H226 lung = system: NCI-H226 lung
SK-OV-3 ovarian = system: SK-OV-3 ovarian
M14 melanoma = system: M14 melanoma
EKVX NSCLC = system: EKVX NSCLC
HS 578T breast = system: HS 578T breast
A549 NSCLC = system: A549 NSCLC
NCI/ADR-RES ovarian = system: NCI/ADR-RES ovarian
CCRF-CEM leukemia = system: CCRF-CEM leukemia
UACC-62 melanoma = system: UACC-62 melanoma
OVCAR-8 ovarian = system: OVCAR-8 ovarian
HL-60(TB) leukemia = system: HL-60(TB) leukemia
SK-MEL-5 melanoma = system: SK-MEL-5 melanoma

SMILES: CCOC(=O)/C(C#N)=C\C=C(\Sc1nc2ccccc2s1)c1ccc(Cl)cc1
- GI50 (MDA-MB-435): 16.8 µM
- TGI (MDA-MB-435): 35.3 µM
- GI50 (OVCAR-4 ovarian): 22 µM
- TGI (OVCAR-4 ovarian): 57.8 µM
- GI50 (UO-31 renal): 17 µM
- TGI (UO-31 renal): 35.4 µM
- GI50 (NCI-H460 lung): 80.8 µM
- TGI (NCI-H460 lung): > 100 µM
- GI50 (SF-268 CNS): 31.8 µM
- TGI (SF-268 CNS): > 100 µM
- GI50 (SK-MEL-2 melanoma): 14.8 µM
- TGI (SK-MEL-2 melanoma): 33.5 µM
- GI50 (MOLT-4 leukemia): 3.88 µM
- TGI (MOLT-4 leukemia): > 100 µM
- GI50 (786-0 renal): 19.3 µM
- TGI (786-0 renal): 36.3 µM
- GI50 (HOP-62 NSCLC): 29.1 µM
- TGI (HOP-62 NSCLC): 72.2 µM
- GI50 (HCT-116 colon): 17.1 µM
- TGI (HCT-116 colon): 33.1 µM
- GI50 (LOX IMVI melanoma): 10.9 µM
- TGI (LOX IMVI melanoma): > 100 µM
- GI50 (COLO 205 colon): 20.1 µM
- TGI (COLO 205 colon): 42.8 µM
- GI50 (MDA-MB-231 breast): 50.9 µM
- TGI (MDA-MB-231 breast): > 100 µM
- GI50 (SW-620 colon): 14.3 µM
- TGI (SW-620 colon): 39.2 µM
- GI50 (MCF7 breast): 29.1 µM
- TGI (MCF7 breast): 84.5 µM
- GI50 (KM12 colon): 38 µM
- TGI (KM12 colon): > 100 µM
- GI50 (MALME-3M melanoma): 19.4 µM
- TGI (MALME-3M melanoma): 37.9 µM
- GI50 (NCI-H23 lung): 20.9 µM
- TGI (NCI-H23 lung): 38.9 µM
- GI50 (U251 CNS): 29 µM
- TGI (U251 CNS): > 100 µM
- GI50 (SR leukemia): 4.91 µM
- TGI (SR leukemia): 46.9 µM
- GI50 (HCT-15 colon): 16.4 µM
- TGI (HCT-15 colon): 45.2 µM
- GI50 (SK-MEL-28 melanoma): 25.5 µM
- TGI (SK-MEL-28 melanoma): 69.5 µM
- GI50 (TK-10 renal): 20 µM
- TGI (TK-10 renal): 37.3 µM
- GI50 (PC-3 prostate): 13.5 µM
- TGI (PC-3 prostate): 26.3 µM
- GI50 (DU-145 prostate): 18.7 µM
- TGI (DU-145 prostate): 35.4 µM
- GI50 (SNB-19 CNS): 66.6 µM
- TGI (SNB-19 CNS): > 100 µM
- GI50 (OVCAR-3 ovarian): 14.4 µM
- TGI (OVCAR-3 ovarian): 27.5 µM
- GI50 (SN12C renal): 19.9 µM
- TGI (SN12C renal): 45.2 µM
- GI50 (SF-295 CNS): 37.9 µM
- TGI (SF-295 CNS): > 100 µM
- GI50 (NCI-H522 lung): 18.5 µM
- TGI (NCI-H522 lung): 41.4 µM
- GI50 (K-562 leukemia): 20.2 µM
- TGI (K-562 leukemia): > 100 µM
- GI50 (RPMI-8226 leukemia): 2.47 µM
- TGI (RPMI-8226 leukemia): 14 µM
- GI50 (IGROV1 ovarian): 18.8 µM
- TGI (IGROV1 ovarian): 37.6 µM
- GI50 (T-47D breast): 20.3 µM
- TGI (T-47D breast): 45.1 µM
- GI50 (CAKI-1 renal): 19.5 µM
- TGI (CAKI-1 renal): 41.4 µM
- GI50 (A498 renal): 27.7 µM
- TGI (A498 renal): 72.5 µM
- GI50 (RXF 393 renal): 18.3 µM
- TGI (RXF 393 renal): 37.6 µM
- GI50 (SF-539 CNS): 22.1 µM
- TGI (SF-539 CNS): 40.8 µM
- GI50 (UACC-257 melanoma): 13.7 µM
- TGI (UACC-257 melanoma): 46.8 µM
- GI50 (OVCAR-5 ovarian): > 100 µM
- TGI (OVCAR-5 ovarian): > 100 µM
- GI50 (NCI-H226 lung): 24 µM
- TGI (NCI-H226 lung): 46.7 µM
- GI50 (SK-OV-3 ovarian): 39.6 µM
- TGI (SK-OV-3 ovarian): > 100 µM
- GI50 (M14 melanoma): 26.4 µM
- TGI (M14 melanoma): 54.3 µM
- GI50 (EKVX NSCLC): 14.8 µM
- TGI (EKVX NSCLC): 31.6 µM
- GI50 (HS 578T breast): 31.6 µM
- TGI (HS 578T breast): 68 µM
- GI50 (A549 NSCLC): > 100 µM
- TGI (A549 NSCLC): > 100 µM
- GI50 (NCI/ADR-RES ovarian): 27.5 µM
- TGI (NCI/ADR-RES ovarian): 61.2 µM
- GI50 (CCRF-CEM leukemia): 2.28 µM
- TGI (CCRF-CEM leukemia): 9.5 µM
- GI50 (UACC-62 melanoma): 29.8 µM
- TGI (UACC-62 melanoma): 81.5 µM
- GI50 (OVCAR-8 ovarian): 30.4 µM
- TGI (OVCAR-8 ovarian): 83.9 µM
- GI50 (HL-60(TB) leukemia): 24.2 µM
- TGI (HL-60(TB) leukemia): > 100 µM
- GI50 (SK-MEL-5 melanoma): 15.1 µM
- TGI (SK-MEL-5 melanoma): 31.9 µM
